# Results from PubChem BioAssay AID330 (DTP/NCI, 2004).
# Values joined by “and” are separate entries in the source; they are usually repeats but may differ in a detail not shown here. Equal entries are not always repeated. Inconclusive results and toxic doses are left out.
# Test system: P388 leukemia ip, CD2F1 mice, survival T/C
# Test: NCI In Vivo Anticancer Drug Screen. Data for tumor model P388 Leukemia (intraperitoneal) in CD2F1 (CDF1) mice
# Settings: endpoint: median survival time, higher = longer survival
# Procedure, shortened: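 Mice carrying the transplanted tumor received test compound or vehicle. Survival was recorded in each group, and the value is the treated-group measurement divided by that of the vehicle-treated control group.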
# [1] = dose: 6.25 mg/kg/injection, schedule: Q01DX009 (ip), vehicle: water
# [2] = dose: 100.0 mg/kg/injection, schedule: Q01DX009 (ip), vehicle: Klucel (hydroxypropylcellulose) (HPC)
# [3] = dose: 100.0 mg/kg/injection, schedule: Q01DX009 (ip), vehicle: saline with Tween-80
# [4] = dose: 200.0 mg/kg/injection, schedule: Q01DX009 (ip), vehicle: saline with Tween-80
# [5] = dose: 400.0 mg/kg/injection, schedule: Q01DX009 (ip), vehicle: saline with Tween-80
# [6] = dose: 100.0 mg/kg/injection, schedule: Q04DX003 (ip), vehicle: saline with Tween-80
# [7] = dose: 200.0 mg/kg/injection, schedule: Q04DX003 (ip), vehicle: saline with Tween-80
# [8] = dose: 400.0 mg/kg/injection, schedule: Q04DX003 (ip), vehicle: saline with Tween-80
# [9] = dose: 50.0 mg/kg/injection, schedule: Q01DX005 (ip), vehicle: Klucel (hydroxypropylcellulose) (HPC)
# [10] = dose: 100.0 mg/kg/injection, schedule: Q01DX005 (ip), vehicle: Klucel (hydroxypropylcellulose) (HPC)
# [11] = dose: 200.0 mg/kg/injection, schedule: Q01DX005 (ip), vehicle: Klucel (hydroxypropylcellulose) (HPC)
smiles,measurement,setting,value
CCCCCCCCCCCCCCC(O)c1ccccc1 (stereo unspecified),T/C,"dose: 7.5 mg/kg/injection, schedule: Q01DX009 (ip), vehicle: Klucel (hydroxypropylcellulose) (HPC)",113 % of control
same,T/C,"dose: 15.0 mg/kg/injection, schedule: Q01DX009 (ip), vehicle: Klucel (hydroxypropylcellulose) (HPC)",115 % of control
same,T/C,"dose: 30.0 mg/kg/injection, schedule: Q01DX009 (ip), vehicle: Klucel (hydroxypropylcellulose) (HPC)",110 % of control
C[n+]1c(-c2cccc(OCCCCCCCCCCCCCCCCOc3cccc(-c4c5cc(N)ccc5c5ccc(N)cc5[n+]4C)c3)c2)c2cc(N)ccc2c2ccc(N)cc21,T/C,"dose: 0.39 mg/kg/injection, schedule: Q01DX009 (ip), vehicle: water",117 % of control
same,T/C,"dose: 0.78 mg/kg/injection, schedule: Q01DX009 (ip), vehicle: water",117 % of control
same,T/C,"dose: 1.56 mg/kg/injection, schedule: Q01DX009 (ip), vehicle: water",98 % of control and 119 % of control
same,T/C,"dose: 3.12 mg/kg/injection, schedule: Q01DX009 (ip), vehicle: water",113 % of control
same,T/C,[1],179 % of control
Cn1c(=O)[nH]c2nnc(-c3ccccc3)nc2c1=O,T/C,"dose: 50.0 mg/kg/injection, schedule: Q01DX009 (ip), vehicle: Klucel (hydroxypropylcellulose) (HPC)",107 % of control
same,T/C,[2],106 % of control
CCOC(=O)c1cc(OC(C)=O)c2c(ccc3ccccc32)c1C,T/C,[2],95 % of control
same,T/C,"dose: 200.0 mg/kg/injection, schedule: Q01DX009 (ip), vehicle: Klucel (hydroxypropylcellulose) (HPC)",90 % of control
same,T/C,"dose: 400.0 mg/kg/injection, schedule: Q01DX009 (ip), vehicle: Klucel (hydroxypropylcellulose) (HPC)",95 % of control
N#CCc1ccc(Cl)c(Cl)c1,T/C,"dose: 6.25 mg/kg/injection, schedule: Q01DX009 (ip), vehicle: saline with Tween-80",104 % of control
same,T/C,"dose: 12.5 mg/kg/injection, schedule: Q01DX009 (ip), vehicle: saline with Tween-80",100 % of control
same,T/C,"dose: 12.5 mg/kg/injection, schedule: Q04DX003 (ip), vehicle: saline with Tween-80",100 % of control
same,T/C,"dose: 25.0 mg/kg/injection, schedule: Q01DX009 (ip), vehicle: saline with Tween-80",100 % of control
same,T/C,"dose: 25.0 mg/kg/injection, schedule: Q04DX003 (ip), vehicle: saline with Tween-80",100 % of control
COc1ccc(CC(=O)Cc2ccc(OC)c(OC)c2)cc1OC,T/C,"dose: 50.0 mg/kg/injection, schedule: Q01DX009 (ip), vehicle: saline with Tween-80",101 % of control
same,T/C,[3],111 % of control
same,T/C,[4],95 % of control
same,T/C,[5],99 % of control
same,T/C,"dose: 600.0 mg/kg/injection, schedule: Q01DX009 (ip), vehicle: saline with Tween-80",87 % of control
c1ccc2c(c1)C1OC2c2c1ccc1ccccc21 (stereo unspecified),T/C,"dose: 50.0 mg/kg/injection, schedule: Q01DX005 (ip), vehicle: saline with Tween-80",97 % of control
same,T/C,"dose: 100.0 mg/kg/injection, schedule: Q01DX005 (ip), vehicle: saline with Tween-80",90 % of control
same,T/C,"dose: 200.0 mg/kg/injection, schedule: Q01DX005 (ip), vehicle: saline with Tween-80",88 % of control
Cc1[nH]c(=O)[nH]c(=O)c1/C=C/C(=O)NC(CO)CS(=O)C(C)C (stereo unspecified),T/C,"dose: 0.07 mg/kg/injection, schedule: Q01DX009 (ip), vehicle: water",103 % of control
same,T/C,"dose: 0.15 mg/kg/injection, schedule: Q01DX009 (ip), vehicle: water",100 % of control
same,T/C,"dose: 0.3 mg/kg/injection, schedule: Q01DX009 (ip), vehicle: water",103 % of control
same,T/C,"dose: 0.6 mg/kg/injection, schedule: Q01DX009 (ip), vehicle: water",103 % of control
same,T/C,"dose: 2.0 mg/kg/injection, schedule: Q01DX009 (ip), vehicle: water",121 % of control
same,T/C,"dose: 4.0 mg/kg/injection, schedule: Q01DX009 (ip), vehicle: water",118 % of control
same,T/C,"dose: 8.0 mg/kg/injection, schedule: Q01DX009 (ip), vehicle: water",118 % of control
same,T/C,"dose: 32.0 mg/kg/injection, schedule: Q01DX009 (ip), vehicle: water",100 % of control and 124 % of control
same,T/C,"dose: 64.0 mg/kg/injection, schedule: Q01DX009 (ip), vehicle: water",93 % of control
same,T/C,"dose: 128.0 mg/kg/injection, schedule: Q01DX009 (ip), vehicle: water",98 % of control
same,T/C,"dose: 200.0 mg/kg/injection, schedule: Q01DX009 (ip), vehicle: water",108 % of control
same,T/C,"dose: 256.0 mg/kg/injection, schedule: Q01DX009 (ip), vehicle: water",96 % of control
same,T/C,"dose: 300.0 mg/kg/injection, schedule: Q01DX009 (ip), vehicle: water",110 % of control
same,T/C,"dose: 400.0 mg/kg/injection, schedule: Q01DX009 (ip), vehicle: water",113 % of control
O=C1CCCC1(c1ccccc1)c1ccccc1,T/C,[3],90 % of control
same,T/C,[4],95 % of control
same,T/C,[5],95 % of control
[Cl][Pt+2][Cl].[NH-]c1ccc([N+](=O)[O-])cc1[NH-],T/C,"dose: 3.12 mg/kg/injection, schedule: Q04DX002 (ip), vehicle: saline with Tween-80",100 % of control
same,T/C,"dose: 6.25 mg/kg/injection, schedule: Q04DX002 (ip), vehicle: saline with Tween-80",110 % of control and 113 % of control
same,T/C,"dose: 12.5 mg/kg/injection, schedule: Q04DX002 (ip), vehicle: saline with Tween-80",115 % of control and 118 % of control
same,T/C,"dose: 25.0 mg/kg/injection, schedule: Q04DX002 (ip), vehicle: saline with Tween-80",123 % of control
same,T/C,"dose: 50.0 mg/kg/injection, schedule: Q04DX002 (ip), vehicle: saline with Tween-80",117 % of control
C[C@]12CCC(=O)C[C@H]1CC[C@@H]1[C@@H]2CC[C@@]2(C)[C@H]1CC[C@]2(C)O,T/C,[3],90 % of control
same,T/C,[4],95 % of control
same,T/C,[5],100 % of control
C=C(C)Cn1ccn(C)c1=S,T/C,[6],96 % of control
same,T/C,[7],98 % of control
same,T/C,[8],102 % of control
O=C(O)CCCCSCCCCCCSCCCCC(=O)O,T/C,[9],106 % of control
same,T/C,[10],105 % of control
same,T/C,[11],107 % of control
C[N+](C)=c1ccc2nc3c(ccc4ccccc43)oc-2c1,T/C,"dose: 3.12 mg/kg/injection, schedule: Q01DX005 (ip), vehicle: saline with Tween-80",105 % of control
same,T/C,"dose: 6.25 mg/kg/injection, schedule: Q01DX005 (ip), vehicle: saline with Tween-80",105 % of control
same,T/C,"dose: 12.5 mg/kg/injection, schedule: Q01DX005 (ip), vehicle: saline with Tween-80",103 % of control
CN1N=C(N)c2cn(C3OC(COP(=O)(O)O)C(O)C3O)c3ncnc1c23 (stereo unspecified),T/C,[1],124 % of control
same,T/C,"dose: 20.0 mg/kg/injection, schedule: Q01DX005 (ip), vehicle: saline",122 % of control
same,T/C,"dose: 38.0 mg/kg/injection, schedule: Q01DX005 (ip), vehicle: water",124 % of control
CCc1cc2nc3c(=O)[nH]c(=O)nc-3n(CCN(CCO)CCO)c2cc1CC,T/C,"dose: 60.0 mg/kg/injection, schedule: Q01DX005 (ip), vehicle: saline with Tween-80",99 % of control
same,T/C,"dose: 120.0 mg/kg/injection, schedule: Q01DX005 (ip), vehicle: saline with Tween-80",116 % of control
same,T/C,"dose: 240.0 mg/kg/injection, schedule: Q01DX005 (ip), vehicle: saline with Tween-80",108 % of control
Cc1ccccc1N1C(=O)[N+]2(CCCCC2)N=C1[O-],T/C,[6],99 % of control
same,T/C,[7],100 % of control
same,T/C,[8],92 % of control
Cc1cc(CC(O)(c2ccccc2)c2ccccc2)nc2[nH]c(=O)ccc12,T/C,"dose: 25.0 mg/kg/injection, schedule: Q01DX005 (ip), vehicle: Klucel (hydroxypropylcellulose) (HPC)",97 % of control
same,T/C,[9],103 % of control
same,T/C,[10],98 % of control
same,T/C,[11],96 % of control
ClCCN(CCCl)c1ccc(N=Nc2cccc(Cl)c2Cl)cc1,T/C,"dose: 150.0 mg/kg/injection, schedule: Q04DX003 (ip), vehicle: Klucel (hydroxypropylcellulose) (HPC)",99 % of control
same,T/C,"dose: 300.0 mg/kg/injection, schedule: Q04DX003 (ip), vehicle: Klucel (hydroxypropylcellulose) (HPC)",95 % of control
COc1ccc(S(=O)(=O)NN)cc1,T/C,"dose: 25.0 mg/kg/injection, schedule: Q01DX009 (ip), vehicle: other",106 % of control
same,T/C,"dose: 50.0 mg/kg/injection, schedule: Q01DX009 (ip), vehicle: other",103 % of control
same,T/C,"dose: 100.0 mg/kg/injection, schedule: Q01DX009 (ip), vehicle: other",104 % of control
same,T/C,"dose: 200.0 mg/kg/injection, schedule: Q01DX009 (ip), vehicle: other",106 % of control
CC(C)(C)c1cc(-c2cc(C(C)(C)C)nc(N)n2)nc(N)n1,T/C,"dose: 60.0 mg/kg/injection, schedule: Q01DX005 (ip), vehicle: saline",87 % of control
same,T/C,"dose: 120.0 mg/kg/injection, schedule: Q01DX005 (ip), vehicle: saline",105 % of control
